# Measured values as given in patent US9518022B2, “Anti-HIV compounds” (priority 2014, dated 2016).
# Where two headings read alike, the source gives them in different places.
# Key:
# [1] = test system: HIV-1 NL4-3 viral clone engineered to express Renilla luciferase in place of Nef; assay: microbe, parasite or virus in culture; format: cell-based; details: Human immunodeficiency virus 1, NL43, MT2, 96 h
# Description: The present assay was used to screen candidate antiviral compounds by quantification of virus spread and production over several rounds of infection in vitro. MT-2, a HIV-1 permissive human T-cell line, was seeded in microtiter plates and was simultaneously treated with serially diluted compound and inoculated with a HIV-1 NL4-3 viral clone engineered to express Renilla luciferase in place of Nef. Following treatment, the culture was incubated for 96 hours. After the incubation, media was collected and used to estimate relative infectivity on the indicator cell line, TZM-bl. Additionally, viral spread was quantified by measuring luciferase activity via a commercially available luciferase substrate. In parallel, MT-2 cells were seeded and inoculated with mock virus in the presence of serially diluted compound. Compound toxicity was quantified 96 hours after treatment with AlamarBlue.
# MT-2 (NIH Aids reagent program 237) cells were grown and maintained in an incubator at 37° C. with 5% CO2 using a basal medium of RPMI-1640 supplemented with 10% FBS. Cells were seeded in 100 μl at 2×10^4 cells/well in white walled 96-well microtiter plates. Candidate compounds were 3-fold serially diluted in the appropriate solvent. Solvent without compound was used as a no drug reference. Cells were inoculated at a multiplicity of 0.027 with an HIV-1 NL4-3 virus stock engineered to express Renilla luciferase in place of Nef. Diluted virus stock was first added to serially diluted compound. Compound and virus were delivered to cells in an equal volume (100 μl) and treated cultures were returned to the incubator for 96 hours. In parallel, plates for cytotoxicity estimates were prepared in the same way except cells were plated in clear walled 96-well microtiter plates and were mock infected.
# At 96 hours post infection, 100 μl virus containing culture supernatant was collected from the treated and infected cultures and serially diluted in DMEM supplemented with 10% FBS, 1% sodium pyruvate, and 20 μg/ml DEAE dextran. One day prior, TZM-bl (ATCC PTA-5659) were cultured in basal medium of DMEM supplemented with 10% FBS and 1% sodium pyruvate and seeded at 7.5×10^3 cells/well in black walled 96-well microtiter plates. Diluted virus containing culture supernatant was transferred to TZM-bl cultures and incubated for 48 hours at 37° C. with 5% CO2. Infected TZM-bl cultures were fixed for 5 minutes with a 1% formaldehyde/0.2% gluteraldehyde/PBS solution then washed three times with PBS. Fixed cultures were incubated at 37° C. for 25 minutes with a 200 μg/ml MUG (4-Methylumbelliferyl β-D-[…])/DMEM solution. The reaction was stopped with an equal volume of 1M sodium carbonate and read at 360, 449 nm on fluorescence plate reader (Biotek).
# At 96 hours post infection, 100 μl of culture supernatant was removed from the treated and infected cultures and EnduRen live cell substrate (Promega) was added at a final concentration 1.3 μg/ml. Cells were incubated for 1.5 hours at 37° C. with 5% CO2 then read on a luminescence plate reader (Biotek).
# For all assays, data was imported into Accelrys Assay Explorer 3.3. In Assay Explorer, % inhibition (antiviral or cytotoxicity) was calculated using the solvent control as a reference by the following equation: 1−(SignalCompound/SignalReference). The % Inhibition and compound concentration data was fitted using the following 4-parameter logistic model (Assay Explorer model 42):
# [formula] where X is compound concentration, Y is % inhibition, D is the maximum % Inhibition (constrained to 100%), C is IC50 value or inflection point, B is the hill slope, and A is the minimum % inhibition (constrained to 0%). The IC50 value is reported as the EC50 or CC50 depending on the assay endpoint. EC50 represents the effective concentration at which virus replication is inhibited by 50 percent. CC50 represents the concentration that results in the death of 50 percent of the host cells. […]
# [2] = Cytotoxicity assay (AlamarBlue) in mock infected MT-2 cells; format: cell-based; details: human
# Outline: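 MT-2 cells at 2×10^4 cells/well, mock-infected, treated with 3-fold serial compound dilutions for 96 h at 37 °C. AlamarBlue added for 3 h, fluorescence read at 545/590 nm; % inhibition versus solvent control fitted to a 4-parameter logistic to give CC50.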
# [3] = mock infected MT-2 cells, 96 hours, AlamarBlue, read-out: CC50
Compound,EC50 [1] [µM],CC50 at 96 h [2] [µM],"CC50 at 96 h [2, 3] [µM]"
"COc1cc2c(cc1OCc1ccccc1)CCNC2/C=C/c1ccc2cn[nH]c2c1 (stereo not shown) [BT, 6-(benzyloxy)-1-[(E)-2-(1H-indazol-6-yl)ethenyl]-7-methoxy-1,2,3,4-tetrahydroisoquinoline]",0.613,7.98,–
"COc1cc2c(cc1OCc1ccccc1)CCNC2/C=C/c1cccc2c1ccn2C(=O)OC(C)(C)C (stereo not shown) [CK, tert-butyl 4-[(E)-2-[6-(benzyloxy)-7-methoxy-1,2,3,4-tetrahydroisoquinolin-1-yl]ethenyl]-1H-indole-1-carboxylate]",0.805,5.99,–
"COc1cc2c(cc1OCc1ccccc1)CCNC2/C=C/c1cccc2[nH]ccc12 (stereo not shown) [CL, 6-(benzyloxy)-1-[(E)-2-(1H-indol-4-yl)ethenyl]-7-methoxy-1,2,3,4-tetrahydroisoquinoline]",1.5,7.2,–
"COc1cc2c(cc1OCc1ccccc1)CCNC2/C=C/c1ccc2c(ccn2C(=O)OC(C)(C)C)c1 (stereo not shown) [CM, tert-butyl 5-[(E)-2-[6-(benzyloxy)-7-methoxy-1,2,3,4-tetrahydroisoquinolin-1-yl]ethenyl]-1H-indole-1-carboxylate]",1.3,10,–
"COc1cc2c(cc1OCc1ccccc1)CCNC2/C=C/c1cccc2ccn(C(=O)OC(C)(C)C)c12 (stereo not shown) [CN, tert-butyl 7-[(E)-2-[6-(benzyloxy)-7-methoxy-1,2,3,4-tetrahydroisoquinolin-1-yl]ethenyl]-1H-indole-1-carboxylate]",1.83,19.6,–
"COc1cc2c(cc1OCc1ccccc1)CCNC2/C=C/c1ccc(F)c(O)c1F (stereo not shown) [CO, 3-[(E)-2-[6-(benzyloxy)-7-methoxy-1,2,3,4-tetrahydroisoquinolin-1-yl]ethenyl]-2,6-difluorophenol]",6,10,–
"COc1cc2c(cc1OCc1ccccc1)CCNC2/C=C/c1cccc(S(C)(=O)=O)c1 (stereo not shown) [CP, 6-(benzyloxy)-1-[(E)-2-(3-methanesulfonylphenyl)ethenyl]-7-methoxy-1,2,3,4-tetrahydroisoquinoline]",3.07,20.6,–
"COc1cc2c(cc1/C=C/C1NCCc3cc(OCc4ccccc4)c(OC)cc31)OCCO2 (stereo not shown) [CQ, 6-(benzyloxy)-7-methoxy-1-[(E)-2-(7-methoxy-2,3-dihydro-1,4-benzodioxin-6-yl)ethenyl]-1,2,3,4-tetrahydroisoquinoline]",0.06,1.4,–
"COc1cc2c(cc1/C=C/C1NCCc3cc(OCc4ccccc4)c(OC)cc31)OCO2 (stereo not shown) [CR, 6-(benzyloxy)-7-methoxy-1-[(E)-2-(6-methoxy-2H-1,3-benzodioxol-5-yl)ethenyl]-1,2,3,4-tetrahydroisoquinoline]",0.12,3.3,–
"COc1cc2c(cc1OCc1ccccc1)CCNC2/C=C/c1ccc2ccn(C(=O)OC(C)(C)C)c2c1 (stereo not shown) [CS, tert-butyl 6-[(E)-2-[6-(benzyloxy)-7-methoxy-1,2,3,4-tetrahydroisoquinolin-1-yl]ethenyl]-1H-indole-1-carboxylate]",0.912,6.15,–
"COc1cc(/C=C/C2NCCc3cc(OCc4ccccc4)c(OC)cc32)c(N(C)C)cc1OC (stereo not shown) [CT, 2-[(E)-2-[6-(benzyloxy)-7-methoxy-1,2,3,4-tetrahydroisoquinolin-1-yl]ethenyl]-4,5-dimethoxy-N,N-dimethylaniline]",0.2,8.9,–
"COc1cc2c(cc1OCc1ccccc1)CCNC2/C=C/c1cccnc1N(C)C (stereo not shown) [CU, 3-[(E)-2-[6-(benzyloxy)-7-methoxy-1,2,3,4-tetrahydroisoquinolin-1-yl]ethenyl]-N,N-dimethylpyridin-2-amine]",1.4,19.9,–
"COc1cc(C)c(/C=C/C2c3cc(OC)c(OCc4ccccc4)cc3CCN2C(N)=O)cc1OCc1ccccc1 (stereo not shown) [Example R, 6-benzyloxy-1-[(E)-2-(5-benzyloxy-4-methoxy-2-methyl-phenyl)vinyl]-7-methoxy-3,4-dihydro-1H-isoquinoline-2-carboxamide]",–,–,39.3
"COc1cc(/C=C/C2NCCc3cc(OC)c(OCc4ccccc4)cc32)ccc1OCc1ccccc1 (stereo not shown) [Example S, 7-benzyloxy-1-[(E)-2-(4-benzyloxy-3-methoxy-phenyl)vinyl]-6-methoxy-1,2,3,4-tetrahydroisoquinoline]",–,8.25,–
"COc1cc(C)c(/C=C/C2c3cc(OC)c(OCc4ccccc4)cc3CCN2C(=O)c2ccncc2)cc1OCc1ccccc1 (stereo not shown) [Example U, [6-benzyloxy-1-[(E)-2-(5-benzyloxy-4-methoxy-2-methyl-phenyl)vinyl]-7-methoxy-3,4-dihydro-1H-isoquinolin-2-yl]-(4-pyridyl)methanone]",–,> 100,–
"COc1ccc(/C=C/C2c3cc(OC)c(OCc4ccccc4)cc3CCN2C)cc1OCc1ccccc1 (stereo not shown) [Example V, 6-benzyloxy-1-[(E)-2-(3-benzyloxy-4-methoxy-phenyl)vinyl]-7-methoxy-2-methyl-3,4-dihydro-1H-isoquinoline]",–,6.68,–
"COc1cc2c(cc1OCc1ccccc1)CCNC2/C=C/c1ccccc1C (stereo not shown) [Example W, 6-benzyloxy-7-methoxy-1-[(E)-2-(o-tolyl)vinyl]-1,2,3,4-tetrahydroisoquinoline]",–,–,4
"COc1cc2c(cc1OCc1ccccc1)CCNC2/C=C/c1ccc(F)cc1C (stereo not shown) [Example X, 6-benzyloxy-1-[(E)-2-(4-fluoro-2-methyl-phenyl)vinyl]-7-methoxy-1,2,3,4-tetrahydroisoquinoline]",–,–,5.3
"COc1cc(C)c(/C=C/C2c3cc(OC)c(OCc4ccccc4)cc3CCN2C(=O)OC(C)(C)C)cc1OCc1ccccc1 (stereo not shown) [Example Y, tert-butyl 6-benzyloxy-1-[(E)-2-(5-benzyloxy-4-methoxy-2-methyl-phenyl)vinyl]-7-methoxy-3,4-dihydro-1H-isoquinoline-2-carboxylate]",–,28.1,–
